Assay results published in patent US9079913B2, “Spiro-oxindole MDM2 antagonists” (The Regents of the University of Michigan, priority 2009, dated 2015).
Like-named read-outs stand apart in the source and are kept apart here.

Key:
[1] = tested on: Isogenic HCT-116 colon cancer cell lines; test: cells; format: cell-based; settings: Homo sapiens;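 also: cells grown in 96-well plates in McCoy's 5A medium with 10% FBS, exposed to compound for 4 days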
Description: Cells were seeded in 96-well flat bottom cell culture plates at a density of 2−3×10^3 cells/well with compounds and incubated for 4 days.

[2] = tested on: cancer cell lines with wild-type p53 / mutated or deleted p53 (ATCC); test: Cell growth assay (WST-8), other cancer cell lines; format: cell-based; settings: Homo sapiens
[3] = target: recombinant human His-tagged MDM2 protein (residues 1-118) (Homo sapiens (Human), UniProt Q00987); test: Fluorescence-polarization MDM2 binding assay;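 also: fluorescence polarization read after three hours of incubation in potassium phosphate buffer containing bovine gamma globulin and Triton X-100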
Chain of recombinant human His-tagged MDM2 protein (residues 1-118) (Q00987 1-118): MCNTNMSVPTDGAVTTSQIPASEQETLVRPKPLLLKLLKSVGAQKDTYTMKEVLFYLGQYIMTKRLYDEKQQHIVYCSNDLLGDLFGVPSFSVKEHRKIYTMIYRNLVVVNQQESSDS

[4] = HCT-116, read-out: Inhibition of cell growth IC50, HCT116 p53 KO, Table 19B, HCT116 p53 KO
[5] = HCT-116, read-out: Inhibition of cell growth IC50, HCT116 p53 WT, Table 19B, HCT116 p53 WT
[6] = LNCaP, Table 19B, LNCaP cells, read-out: Inhibition of cell growth IC50, LNCaP
[7] = PC-3, Table 19B, PC3 cells, read-out: Inhibition of cell growth IC50, PC3
[8] = Table 19B, read-out: Binding affinities to MDM2 protein as determined by FP based assay IC50
[9] = HCT-116, read-out: Cell growth inhibition using WST assay, HCT116 p53KO IC50, Table 19C, HCT116 p53KO
[10] = HCT-116, read-out: Cell growth inhibition using WST assay, HCT116 p53WT IC50, Table 19C, HCT116 p53WT
[11] = LNCaP, Table 19C, LNCaP cells, read-out: Cell growth inhibition using WST assay, LNCaP IC50
[12] = PC-3, Table 19C, PC3 cells, read-out: Cell growth inhibition using WST assay, PC3 IC50
[13] = Table 19C, read-out: Bidning affinities to MDM2 as determined using FP assay IC50
[14] = HCT-116, read-out: HCT116p53KO IC50, Table 19D, HCT116 p53KO
[15] = HCT-116, read-out: HCT116p53WT IC50, Table 19D, HCT116 p53WT
[16] = LNCaP, Table 19D, LNCaP cells, read-out: LNCaP IC50
[17] = PC-3, Table 19D, PC3 cells, read-out: PC3 IC50
[18] = Table 19D, read-out: MDM2 Binding Affinities IC50
[19] = HCT-116, read-out: HCT-116 (p53-/-) IC50, Table 19A, HCT-116 p53-/-, cell growth
[20] = HCT-116, read-out: HCT-116 (p53 wild-type) IC50, Table 19A, HCT-116 p53 wild-type, cell growth
[21] = LNCaP, Table 19A, LNCAP cells, p53 wild-type, cell growth, read-out: LNCAP (p53 wild-type) IC50
[22] = PC-3, Table 19A, PC-3 cells, deleted p53, cell growth, read-out: PC-3 (deleted p53) IC50
[23] = SJSA-1, Table 19A, SJSA-1 cells, p53 wild-type, cell growth, read-out: SJSA-1 (p53 wild-type) IC50
[24] = Table 19A, FP binding assay, read-out: MDM2 IC50

`CC(C)CC(C)(C)C[C@H]1N(C)[C@@H](C(=O)NCC[C@H](O)CO)[C@H](c2cccc(Cl)c2F)[C@@]12C(=O)Nc1cc(Cl)c(F)cc12` [MI-733] gave an IC50 [1, 4] of 8.7 ± 0.9 µM, an IC50 [1, 5] of 2.4 ± 0.3 µM and an IC50 [2, 6] of 2.2 ± 0.5 µM. The IC50 [2, 7] was 5.4 ± 1.7 µM and the IC50 [3, 8] was greater than 1 µM.
With `CC(C)(C)C[C@H]1N[C@@H](C(=O)NCC[C@H](O)CN)[C@H](c2cccc(Cl)c2)[C@@]12C(=O)Nc1cc(Cl)c(F)cc12` [MI-319-25] the IC50 [1, 9] was greater than 10 µM, the IC50 [1, 10] was less than 5 µM and the IC50 [2, 11] was less than 5 µM. It also gave an IC50 [2, 12] greater than 10 µM and an IC50 [3, 13] of less than 1 µM.
`O=C(NCC[C@H](O)CO)[C@@H]1N[C@H](CCc2ccccc2)[C@]2(C(=O)Nc3cc(Cl)c(F)cc32)[C@H]1c1cccc(Cl)c1` [MI-701] showed an IC50 [1, 4] of 33.8 ± 14.6 µM, an IC50 [1, 5] of 16.7 ± 13 µM and an IC50 [2, 6] of 3 ± 3.5 µM. For the same molecule, the IC50 [2, 7] was 48.9 ± 22.4 µM and the IC50 [3, 8] was greater than 10 µM.
`CC(C)(C)C[C@H]1N[C@@H](C(=O)NCC[C@H](O)CO)[C@H](c2cccc(Cl)c2F)[C@@]12C(=O)Nc1cc(F)c(F)cc12` [MI-519-10] showed an IC50 [1, 14] greater than 10 µM, an IC50 [1, 15] of less than 3 µM and an IC50 [2, 16] of less than 3 µM. For the same molecule, the IC50 [2, 17] was greater than 10 µM and the IC50 [3, 18] was less than 3 µM.
Work on `CC(C)CC(C)(C)C[C@H]1N[C@@H](C(=O)NCC[C@H](O)CO)[C@H](c2cccc(Cl)c2F)[C@@]12C(=O)Nc1cc(Cl)c(F)cc12` [MI-731] yielded an IC50 [1, 4] of 6.4 ± 1.7 µM, an IC50 [1, 5] of 0.9 ± 0.5 µM and an IC50 [2, 6] of 0.8 ± 0.5 µM. For the same molecule, the IC50 [2, 7] was 5.6 ± 1.9 µM and the IC50 [3, 8] was less than 1 µM.
`O=C(NC1CCC(O)CC1)[C@@H]1N[C@H](C=C2CCCC2)[C@]2(C(=O)Nc3cc(Cl)ccc32)[C@H]1c1cccc(Cl)c1F` (stereo partly shown) [MI-792] was tested, and the IC50 [1, 19] was greater than 20 µM, the IC50 [1, 20] was less than 10 µM and the IC50 [2, 21] was less than 10 µM. It also gave an IC50 [2, 22] greater than 20 µM, an IC50 [2, 23] of less than 10 µM and an IC50 [3, 24] of less than 5 µM.
With `CCC(C)(C)C[C@H]1N(C)[C@@H](C(=O)NCC[C@H](O)CO)[C@H](c2cccc(Cl)c2F)[C@@]12C(=O)Nc1cc(F)c(F)cc12` [MI-723] the IC50 [1, 4] was 51.3 µM, the IC50 [1, 5] was 2.42 µM and the IC50 [2, 6] was 2.3 µM. It also gave an IC50 [2, 7] of 24.7 µM and an IC50 [3, 8] of less than 5 µM.
`CN1CCC(NC(=O)[C@@H]2N[C@H](CC(C)(C)C)[C@]3(C(=O)Nc4cc(Cl)ccc43)[C@H]2c2cccc(Cl)c2F)CC1` [MI-519-52] gave an IC50 [1, 14] greater than 5 µM, an IC50 [1, 15] of less than 1 µM and an IC50 [2, 16] of less than 1 µM. For the same molecule, the IC50 [2, 17] was greater than 3 µM, the IC50 ([2]; Table 19D, SJSA-1 cells, unit inferred, read-out: SJSA-1) was less than 1 µM and the IC50 [3, 18] was less than 1 µM.
Work on `CC(C)(C)C[C@H]1N[C@@H](C(=O)NCC[C@H](O)CO)[C@H](c2cncc(Cl)c2)[C@@]12C(=O)Nc1cc(Cl)c(F)cc12` [MI-319-34] yielded an IC50 [1, 9] greater than 30 µM, an IC50 [1, 10] of 9.5 ± 2.1 µM and an IC50 [2, 11] of less than 10 µM. It also gave an IC50 [2, 12] greater than 30 µM and an IC50 [3, 13] of less than 10 µM.
Molecule `O=C(NC1CCC(O)CC1)[C@@H]1N[C@H](CC2CCCC2)[C@]2(C(=O)Nc3cc(Cl)ccc32)[C@H]1c1cccc(Cl)c1F` (stereo partly shown) [MI-791] has an IC50 [1, 19] greater than 10 µM, an IC50 [1, 20] of less than 3 µM and an IC50 [2, 21] of less than 3 µM. It also gave an IC50 [2, 22] greater than 10 µM, an IC50 [2, 23] of less than 3 µM and an IC50 [3, 24] of less than 3 µM.
`CC(C)(C)C[C@H]1N[C@@H](C(=O)NCC[C@H](O)CO)[C@H](c2ccc(F)c(F)c2)[C@@]12C(=O)Nc1cc(F)c(F)cc12` [MI-519-12] was tested, and the IC50 [1, 14] was greater than 10 µM, the IC50 [1, 15] was less than 3 µM and the IC50 [2, 16] was less than 3 µM. It also gave an IC50 [2, 17] greater than 10 µM and an IC50 [3, 18] of less than 10 µM.
In the case of `CC[C@H]1N[C@@H](C(=O)NCCN2CCOCC2)[C@H](c2cccc(Cl)c2)[C@@]12C(=O)Nc1cc(Cl)c(F)cc12` [MI-319-39], the IC50 [1, 9] is reported as greater than 10 µM, the IC50 [1, 10] is reported as greater than 3 µM and the IC50 [2, 11] is reported as greater than 3 µM. For the same molecule, the IC50 [2, 12] was greater than 10 µM and the IC50 [3, 13] was greater than 10 µM.
`CN1[C@@H](C(=O)NCC[C@H](O)CO)[C@H](c2cccc(Cl)c2)[C@@]2(C(=O)Nc3cc(Cl)c(F)cc32)[C@H]1CCCc1ccccc1` [MI-709] showed an IC50 [1, 4] of 9.4 ± 1.2 µM, an IC50 [1, 5] of 9.9 ± 1.7 µM and an IC50 [2, 6] of 5.6 ± 1.1 µM. For the same molecule, the IC50 [2, 7] was 7.2 ± 1.4 µM and the IC50 [3, 8] was greater than 10 µM.
Work on `O=C(NCC[C@H](O)CO)[C@@H]1N[C@H](CCc2ccsc2)[C@]2(C(=O)Nc3cc(Cl)c(F)cc32)[C@H]1c1cccc(Cl)c1` [MI-707] yielded an IC50 [1, 4] of 1.3 ± 0.2 µM, an IC50 [1, 5] of 0.6 ± 0.1 µM and an IC50 [2, 6] of 0.3 µM. It also gave an IC50 [2, 7] of 4.6 ± 2.9 µM and an IC50 [3, 8] of less than 5 µM.
